Assay results: ChEMBL document CHEMBL1134216, “Synthesis, modelling and NK1 antagonist evaluation of a non-rigid cyclopropane-containing analogue of CP-99,994” (Bioorg Med Chem Lett, 2001)

Molecular target: Substance-P receptor (Homo sapiens, UniProt P25103)
Assay: Binding affinity towards Tachykinin receptor 1 expressed in CHO cells using [3H][Pro9]-SP as radioligand
Format: cell-based

Chain of Substance-P receptor (P25103 whole entry): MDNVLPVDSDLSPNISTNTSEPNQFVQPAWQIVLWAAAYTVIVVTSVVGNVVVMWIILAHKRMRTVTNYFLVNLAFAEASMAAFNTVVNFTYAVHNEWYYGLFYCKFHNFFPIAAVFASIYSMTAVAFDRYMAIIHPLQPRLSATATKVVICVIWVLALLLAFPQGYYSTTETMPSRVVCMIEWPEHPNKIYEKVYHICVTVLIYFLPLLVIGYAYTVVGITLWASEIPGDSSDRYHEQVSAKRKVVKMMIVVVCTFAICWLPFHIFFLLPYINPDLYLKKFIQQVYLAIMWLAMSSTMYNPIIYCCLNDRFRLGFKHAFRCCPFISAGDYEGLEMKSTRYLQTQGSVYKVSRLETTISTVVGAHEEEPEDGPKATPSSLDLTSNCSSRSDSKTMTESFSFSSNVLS

Row | SMILES | Ki [nM]
1 | CNC(c1ccccc1)C1(NCc2ccccc2OC)CC1 (configuration not stated) | 150
2 | CNC(c1ccccc1)C1(NCc2cc(C(F)(F)F)cc(C(F)(F)F)c2)CC1 (racemic) | 620
